Measured values: the OligoGym collection
Oligonucleotides are written 5' to 3', each unit as a sugar letter and its base; * is a phosphorothioate linkage, no mark a phosphodiester; rarer units and linkages stand in square brackets, end groups in braces. Plain capitals give the bases only. d = 2'-deoxy (DNA); r = 2'-OH (RNA)
Also: test concentration or dose not given here.

Each substance was assayed against UBE2M (assay: reporter assay of Huesken 2005). Conditions: siRNA.
In the case of “sense rCrUrUrGrGrArGrCrCrCrArArCrCrCrCrGrArGdTdT / antisense rCrUrCrGrGrGrGrUrUrGrGrGrCrUrCrCrArArGdAdA”, the normalised inhibition (eCFP-eYFP dual reporter) is reported as 64.5%. With “sense rArGrArArGrArArGrGrArGrGrArGrGrArGrUrCdTdT / antisense rGrArCrUrCrCrUrCrCrUrCrCrUrUrCrUrUrCrUdGdC” the normalised inhibition (eCFP-eYFP dual reporter) was 59.4%. In the case of “sense rGrCrArGrCrArGrCrArArGrArArGrGrCrGrUrCdTdT / antisense rGrArCrGrCrCrUrUrCrUrUrGrCrUrGrCrUrGrCdCdC”, the normalised inhibition (eCFP-eYFP dual reporter) is reported as 61%. Substance “sense rCrArArUrGrGrUrCrUrArUrCrArCrCrCrCrArAdTdT / antisense rUrUrGrGrGrGrUrGrArUrArGrArCrCrArUrUrGdTdC” has a normalised inhibition (eCFP-eYFP dual reporter) of 86.1%. “sense rCrUrGrGrUrCrArUrCrUrGrUrCrCrUrGrArUrGdTdT / antisense rCrArUrCrArGrGrArCrArGrArUrGrArCrCrArGdCdT” gave a normalised inhibition (eCFP-eYFP dual reporter) of 76.7%. Substance “sense rArGrCrArGrCrArArGrArArGrGrCrGrUrCrGrGdTdT / antisense rCrCrGrArCrGrCrCrUrUrCrUrUrGrCrUrGrCrUdGdC” has a normalised inhibition (eCFP-eYFP dual reporter) of 53%. With “sense rGrUrGrArUrArUrCrArGrCrUrUrCrUrCrArGrAdTdT / antisense rUrCrUrGrArGrArArGrCrUrGrArUrArUrCrArCdAdC” the normalised inhibition (eCFP-eYFP dual reporter) was 70.3%. With “sense rCrGrGrGrGrUrGrGrCrUrArCrArUrCrGrGrCrUdTdT / antisense rArGrCrCrGrArUrGrUrArGrCrCrArCrCrCrCrGdCdA” the normalised inhibition (eCFP-eYFP dual reporter) was 54.3%. In the case of “sense rGrUrCrCrUrGrArUrGrArGrGrGrCrUrUrCrUrAdTdT / antisense rUrArGrArArGrCrCrCrUrCrArUrCrArGrGrArCdAdG”, the normalised inhibition (eCFP-eYFP dual reporter) is reported as 80.3%. Work on “sense rUrArArGrGrUrGrGrGrCrCrArGrGrGrUrUrArCdTdT / antisense rGrUrArArCrCrCrUrGrGrCrCrCrArCrCrUrUrAdAdA” yielded a normalised inhibition (eCFP-eYFP dual reporter) of 69.9%. In the case of “sense rGrGrArCrCrCrArCrUrGrArArCrArArGrGrArGdTdT / antisense rCrUrCrCrUrUrGrUrUrCrArGrUrGrGrGrUrCrCdTdC”, the normalised inhibition (eCFP-eYFP dual reporter) is reported as 63.1%. “sense rGrGrGrCrGrGrCrArCrCrArArGrGrGrCrArGrCdTdT / antisense rGrCrUrGrCrCrCrUrUrGrGrUrGrCrCrGrCrCrCdGdC” was tested, and the normalised inhibition (eCFP-eYFP dual reporter) was 64.9%. Work on “sense rArCrGrArUrArArArCrUrCrCrArUrArArUrUrUdTdT / antisense rArArArUrUrArUrGrGrArGrUrUrUrArUrCrGrUdAdA” yielded a normalised inhibition (eCFP-eYFP dual reporter) of 82.2%. Work on “sense rGrArGrUrCrGrGrCrGrGrGrCrGrGrCrArCrCrAdTdT / antisense rUrGrGrUrGrCrCrGrCrCrCrGrCrCrGrArCrUrCdCdT” yielded a normalised inhibition (eCFP-eYFP dual reporter) of 53%. In the case of “sense rUrCrUrUrCrUrUrGrGrArGrCrCrCrArArCrCrCdTdT / antisense rGrGrGrUrUrGrGrGrCrUrCrCrArArGrArArGrAdGdA”, the normalised inhibition (eCFP-eYFP dual reporter) is reported as 56.1%. For “sense rArGrArArCrArArCrCrGrGrCrGrGrCrUrGrUrUdTdT / antisense rArArCrArGrCrCrGrCrCrGrGrUrUrGrUrUrCrUdGdC”, the normalised inhibition (eCFP-eYFP dual reporter) was 61.2%. In the case of “sense rCrCrUrGrArUrGrArGrGrGrCrUrUrCrUrArCrAdTdT / antisense rUrGrUrArGrArArGrCrCrCrUrCrArUrCrArGrGdAdC”, the normalised inhibition (eCFP-eYFP dual reporter) is reported as 77.9%. With “sense rGrGrGrCrCrArGrGrGrUrUrArCrCrCrGrCrArUdTdT / antisense rArUrGrCrGrGrGrUrArArCrCrCrUrGrGrCrCrCdAdC” the normalised inhibition (eCFP-eYFP dual reporter) was 79.3%. With “sense rArArCrUrCrCrArUrArArUrUrUrArUrGrGrCrCdTdT / antisense rGrGrCrCrArUrArArArUrUrArUrGrGrArGrUrUdTdA” the normalised inhibition (eCFP-eYFP dual reporter) was 49.7%. “sense rUrCrArCrCrCrCrArArCrArUrUrGrArCrCrUrCdTdT / antisense rGrArGrGrUrCrArArUrGrUrUrGrGrGrGrUrGrAdTdA” showed a normalised inhibition (eCFP-eYFP dual reporter) of 65.4%. Substance “sense rArGrGrArCrUrGrGrArArGrCrCrArGrUrCrCrUdTdT / antisense rArGrGrArCrUrGrGrCrUrUrCrCrArGrUrCrCrUdCdT” has a normalised inhibition (eCFP-eYFP dual reporter) of 54.1%. Work on “sense rCrUrUrCrUrCrArGrArUrCrCrArGrArCrGrArCdTdT / antisense rGrUrCrGrUrCrUrGrGrArUrCrUrGrArGrArArGdCdT” yielded a normalised inhibition (eCFP-eYFP dual reporter) of 65.6%. With “sense rUrUrCrUrArCrArArGrArGrUrGrGrGrArArGrUdTdT / antisense rArCrUrUrCrCrCrArCrUrCrUrUrGrUrArGrArAdGdC” the normalised inhibition (eCFP-eYFP dual reporter) was 68.9%. “sense rArUrCrCrArGrArArGrGrArCrArUrArArArCrGdTdT / antisense rCrGrUrUrUrArUrGrUrCrCrUrUrCrUrGrGrArUdCdC” showed a normalised inhibition (eCFP-eYFP dual reporter) of 56.4%. With “sense rArCrGrArGrCrUrGrArArCrCrUrGrCrCrCrArAdTdT / antisense rUrUrGrGrGrCrArGrGrUrUrCrArGrCrUrCrGrUdTdT” the normalised inhibition (eCFP-eYFP dual reporter) was 66%. Work on “sense rArGrUrGrUrGrArGrArCrArArUrGrGrUrCrUrAdTdT / antisense rUrArGrArCrCrArUrUrGrUrCrUrCrArCrArCrUdTdC” yielded a normalised inhibition (eCFP-eYFP dual reporter) of 92.1%. For “sense rCrGrGrCrGrGrCrGrCrArGrCrUrGrCrGrGrArUdTdT / antisense rArUrCrCrGrCrArGrCrUrGrCrGrCrCrGrCrCrGdAdC”, the normalised inhibition (eCFP-eYFP dual reporter) was 69.9%. “sense rCrUrUrCrUrUrGrGrArGrCrCrCrArArCrCrCrCdTdT / antisense rGrGrGrGrUrUrGrGrGrCrUrCrCrArArGrArArGdAdG” gave a normalised inhibition (eCFP-eYFP dual reporter) of 61.3%. “sense rCrArCrCrCrCrArArCrArUrUrGrArCrCrUrCrGdTdT / antisense rCrGrArGrGrUrCrArArUrGrUrUrGrGrGrGrUrGdAdT” was tested, and the normalised inhibition (eCFP-eYFP dual reporter) was 62.5%. In the case of “sense rGrGrCrCrArGrGrGrUrUrArCrCrCrGrCrArUrGdTdT / antisense rCrArUrGrCrGrGrGrUrArArCrCrCrUrGrGrCrCdCdA”, the normalised inhibition (eCFP-eYFP dual reporter) is reported as 73.8%. “sense rGrCrCrArGrUrCrCrUrUrArCrGrArUrArArArCdTdT / antisense rGrUrUrUrArUrCrGrUrArArGrGrArCrUrGrGrCdTdT” showed a normalised inhibition (eCFP-eYFP dual reporter) of 68.5%. Work on “sense rUrCrArUrCrUrGrUrCrCrUrGrArUrGrArGrGrGdTdT / antisense rCrCrCrUrCrArUrCrArGrGrArCrArGrArUrGrAdCdC” yielded a normalised inhibition (eCFP-eYFP dual reporter) of 57.5%.

These substances were tested against UBE2C (assay: reporter assay of Huesken 2005). Conditions: siRNA.
Work on “sense rCrArGrUrArUrArUrGrArArGrArCrCrUrGrArGdTdT / antisense rCrUrCrArGrGrUrCrUrUrCrArUrArUrArCrUrGdTdT” yielded a normalised inhibition (eCFP-eYFP dual reporter) of 82.2%. “sense rCrGrCrUrArGrArGrUrUrCrCrCrCrArGrUrGrGdTdT / antisense rCrCrArCrUrGrGrGrGrArArCrUrCrUrArGrCrGdAdG” was tested, and the normalised inhibition (eCFP-eYFP dual reporter) was 86.9%. With “sense rCrUrUrCrUrArGrGrArGrArArCrCrCrArArCrAdTdT / antisense rUrGrUrUrGrGrGrUrUrCrUrCrCrUrArGrArArGdGdC” the normalised inhibition (eCFP-eYFP dual reporter) was 86.1%. “sense rArCrCrArUrCrCrArUrGrGrArGrCrArGrCrUrGdTdT / antisense rCrArGrCrUrGrCrUrCrCrArUrGrGrArUrGrGrUdCdC” was tested, and the normalised inhibition (eCFP-eYFP dual reporter) was 62.1%. With “sense rUrGrArArCrArCrArCrArUrGrCrUrGrCrCrGrAdTdT / antisense rUrCrGrGrCrArGrCrArUrGrUrGrUrGrUrUrCrAdAdG” the normalised inhibition (eCFP-eYFP dual reporter) was 86.5%. Work on “sense rUrGrCrCrCrUrGrUrArUrGrArUrGrUrCrArGrGdTdT / antisense rCrCrUrGrArCrArUrCrArUrArCrArGrGrGrCrAdGdA” yielded a normalised inhibition (eCFP-eYFP dual reporter) of 50.8%. Work on “sense rArGrGrArGrArArCrCrCrArArCrArUrUrGrArUdTdT / antisense rArUrCrArArUrGrUrUrGrGrGrUrUrCrUrCrCrUdAdG” yielded a normalised inhibition (eCFP-eYFP dual reporter) of 94.2%. With “sense rArCrCrCrArGrGrGrUrArArCrArUrArUrGrCrCdTdT / antisense rGrGrCrArUrArUrGrUrUrArCrCrCrUrGrGrGrUdGdT” the normalised inhibition (eCFP-eYFP dual reporter) was 39.6%. “sense rArCrCrUrGrArGrGrUrArUrArArGrCrUrCrUrCdTdT / antisense rGrArGrArGrCrUrUrArUrArCrCrUrCrArGrGrUdCdT” showed a normalised inhibition (eCFP-eYFP dual reporter) of 80.9%. Substance “sense rUrArArGrCrUrCrUrCrGrCrUrArGrArGrUrUrCdTdT / antisense rGrArArCrUrCrUrArGrCrGrArGrArGrCrUrUrAdTdA” has a normalised inhibition (eCFP-eYFP dual reporter) of 60.2%. “sense rUrGrGrCrUrArCrCrCrUrUrArCrArArUrGrCrGdTdT / antisense rCrGrCrArUrUrGrUrArArGrGrGrUrArGrCrCrAdCdT” was tested, and the normalised inhibition (eCFP-eYFP dual reporter) was 61.3%. “sense rArUrGrCrUrGrCrCrGrArGrCrUrCrUrGrGrArAdTdT / antisense rUrUrCrCrArGrArGrCrUrCrGrGrCrArGrCrArUdGdT” showed a normalised inhibition (eCFP-eYFP dual reporter) of 84.5%. Work on “sense rArGrUrGrGrUrCrUrGrCrCrCrUrGrUrArUrGrAdTdT / antisense rUrCrArUrArCrArGrGrGrCrArGrArCrCrArCrUdTdT” yielded a normalised inhibition (eCFP-eYFP dual reporter) of 61.1%. With “sense rArGrArGrUrUrCrCrCrCrArGrUrGrGrCrUrArCdTdT / antisense rGrUrArGrCrCrArCrUrGrGrGrGrArArCrUrCrUdAdG” the normalised inhibition (eCFP-eYFP dual reporter) was 87%. “sense rArUrGrUrCrArGrGrArCrCrArUrUrCrUrGrCrUdTdT / antisense rArGrCrArGrArArUrGrGrUrCrCrUrGrArCrArUdCdA” gave a normalised inhibition (eCFP-eYFP dual reporter) of 56.5%. Work on “sense rArGrGrUrArUrArArGrCrUrCrUrCrGrCrUrArGdTdT / antisense rCrUrArGrCrGrArGrArGrCrUrUrArUrArCrCrUdCdA” yielded a normalised inhibition (eCFP-eYFP dual reporter) of 92.4%. “sense rArGrUrUrCrCrUrCrArCrGrCrCrCrUrGrCrUrAdTdT / antisense rUrArGrCrArGrGrGrCrGrUrGrArGrGrArArCrUdTdC” gave a normalised inhibition (eCFP-eYFP dual reporter) of 84.4%. In the case of “sense rGrArArCrArCrArCrArUrGrCrUrGrCrCrGrArGdTdT / antisense rCrUrCrGrGrCrArGrCrArUrGrUrGrUrGrUrUrCdAdA”, the normalised inhibition (eCFP-eYFP dual reporter) is reported as 89.6%. “sense rGrCrUrArGrArGrUrUrCrCrCrCrArGrUrGrGrCdTdT / antisense rGrCrCrArCrUrGrGrGrGrArArCrUrCrUrArGrCdGdA” was tested, and the normalised inhibition (eCFP-eYFP dual reporter) was 69%. With “sense rGrCrCrUrUrCrUrArGrGrArGrArArCrCrCrArAdTdT / antisense rUrUrGrGrGrUrUrCrUrCrCrUrArGrArArGrGrCdTdC” the normalised inhibition (eCFP-eYFP dual reporter) was 92.8%.
